{"source": "patent US7862807B2", "about": "“Dendrimers as molecular translocators” (University of California, San Diego, priority 2002, dated 2011)", "key": {"[1]": {"tested_on": "HeLa S3 human epithelioid cervical carcinoma cells", "test": "Cellular uptake of fluorescein-labeled dendrimers quantified by flow cytometry (FACS)", "assay_type": "cell-based", "settings": "for delivery to HeLa S3 cells (in words): 250 nM to 50 μM; for Percentage of Cellular Uptake: 4 hours, 37° C., average of two experiments; for saturation of uptake reached with increasing concentration: concentration increased up to 50 μM", "description": "HeLa S3, human epithelioid cervical carcinoma cells of approximately 50% confluency were treated with concentrations varying from 250 nM to 50 μM of each of the molecular transporters 10, 11, 12, 13, and 41 at 37° C. The molecular transporters were directly added to the media (Dulbecco's modified eagle medium containing 10% fetal bovine serum and 1× antibiotic-antimycotic), and the delivery to the cells was visualized by microscopy.\nQuantification of the uptake of the molecular transporter into the cells was performed by flow cytometry 4 hours after treatment. Adherent cells, grown on 6 well plates, were displaced with trypsin, after which the cells were washed with phosphate-buffered saline (PBS). The final cell pellet was collected by centrifugation and resuspended in PBS to a concentration of approximately 1×10^6 cells/mL. A minimum of 20,000 cell events were counted and analyzed using the FACSCalibur and CellQuest brand software (BD Biosciences, San Jose, Calif.)."}, "[2]": {"test": "Solubility in H2O noted on isolation", "assay_type": "physicochemical", "settings": "isolated salt"}, "[3]": {"tested_on": "HeLa S3 cells", "test": "Sulphorhodamine B (SRB) cytotoxicity assay", "assay_type": "cell-based, human", "settings": "4 hour treatment, concentrations up to 50 μM", "description": "The cells were treated with varying concentrations (250 nM to 50 μM) of compound 12 for 4 hours at 37° C. The cells were fixed with trichloroacetic acid and were then subsequently stained with SRB dye. The cells were washed with water, and the SRB-bound complexes were solubilized in Tris buffer. The absorbance at 572 nm was measured in each sample."}}}
{"smiles": "Cl.Cl.Cl.Cl.Cl.Cl.Cl.Cl.Cl.Cl.Cl.Cl.N=C(N)NCCNC(=O)CCOCC(COCCC(=O)NCCNC(=N)N)(COCCC(=O)NCCNC(=N)N)NC(=O)CCNC(=O)CCOCC(COCCC(=O)NCCC(=O)NC(COCCC(=O)NCCNC(=N)N)(COCCC(=O)NCCNC(=N)N)COCCC(=O)NCCNC(=N)N)NC(=O)CCNC(=O)CCOCC(COCCC(=O)NCCC(=O)NC(COCCC(=O)NCCC(=O)NC(COCCC(=O)NCCNC(=N)N)(COCCC(=O)NCCNC(=N)N)COCCC(=O)NCCNC(=N)N)COCCC(=O)NCCC(=O)NC(COCCC(=O)NCCNC(=N)N)(COCCC(=O)NCCNC(=N)N)COCCC(=O)NCCNC(=N)N)NC(=O)CCNC(=S)Nc1ccc(-c2c3ccc(=O)cc-3oc3cc(O)ccc23)c(C(=O)O)c1", "note": "(stereo not shown) [Compound 13]", "values": [{"measurement": "delivery to HeLa S3 cells (in words)", "setting": "[1]", "value": "excellent delivery"}, {"measurement": "Percentage of Cellular Uptake", "setting": "[1]; 250 nM", "value": 3.22, "unit": "%"}, {"measurement": "Percentage of Cellular Uptake", "setting": "[1]; 500 nM", "value": 6.59, "unit": "%"}, {"measurement": "Percentage of Cellular Uptake", "setting": "[1]; 1 μM", "value": 11.91, "unit": "%"}, {"measurement": "Percentage of Cellular Uptake", "setting": "[1]; 5 μM", "value": 90.79, "unit": "%"}, {"measurement": "Percentage of Cellular Uptake", "setting": "[1]; 10 μM", "value": 96.77, "unit": "%"}, {"measurement": "Percentage of Cellular Uptake", "setting": "[1]; 25 μM", "value": 99.11, "unit": "%"}, {"measurement": "Percentage of Cellular Uptake", "setting": "[1]; 50 μM", "value": 99.82, "unit": "%"}, {"measurement": "saturation of uptake reached with increasing concentration", "setting": "[1]", "value": "approximately 100%"}, {"measurement": "solubility in H2O", "setting": "[2]", "value": "barely soluble in H2O"}]}
{"smiles": "Cl.Cl.Cl.Cl.Cl.Cl.N=C(N)NCCNC(=O)CCOCC(COCCC(=O)NCCNC(=N)N)(COCCC(=O)NCCNC(=N)N)NC(=O)CCNC(=O)c1cc(C(=O)NCCNC(=O)CCNC(=S)Nc2ccc(-c3c4ccc(=O)cc-4oc4cc(O)ccc34)c(C(=O)O)c2)cc(C(=O)NCCC(=O)NC(COCCC(=O)NCCNC(=N)N)(COCCC(=O)NCCNC(=N)N)COCCC(=O)NCCNC(=N)N)c1", "note": "(stereo not shown) [Compound 11]", "values": [{"measurement": "delivery to HeLa S3 cells (in words)", "setting": "[1]", "value": "excellent delivery"}, {"measurement": "Percentage of Cellular Uptake", "setting": "[1]; 250 nM", "value": 4.56, "unit": "%"}, {"measurement": "Percentage of Cellular Uptake", "setting": "[1]; 500 nM", "value": 7.52, "unit": "%"}, {"measurement": "Percentage of Cellular Uptake", "setting": "[1]; 1 μM", "value": 11.74, "unit": "%"}, {"measurement": "Percentage of Cellular Uptake", "setting": "[1]; 5 μM", "value": 94.54, "unit": "%"}, {"measurement": "Percentage of Cellular Uptake", "setting": "[1]; 10 μM", "value": 98.55, "unit": "%"}, {"measurement": "Percentage of Cellular Uptake", "setting": "[1]; 25 μM", "value": 99.79, "unit": "%"}, {"measurement": "Percentage of Cellular Uptake", "setting": "[1]; 50 μM", "value": 99.87, "unit": "%"}, {"measurement": "saturation of uptake reached with increasing concentration", "setting": "[1]", "value": "approximately 100%"}]}
{"smiles": "Cl.Cl.Cl.Cl.Cl.Cl.Cl.Cl.Cl.N=C(N)NCCNC(=O)CCOCC(COCCC(=O)NCCNC(=N)N)(COCCC(=O)NCCNC(=N)N)NC(=O)CCNC(=O)CCOCC(COCCC(=O)NCCC(=O)NC(COCCC(=O)NCCNC(=N)N)(COCCC(=O)NCCNC(=N)N)COCCC(=O)NCCNC(=N)N)(COCCC(=O)NCCC(=O)NC(COCCC(=O)NCCNC(=N)N)(COCCC(=O)NCCNC(=N)N)COCCC(=O)NCCNC(=N)N)NC(=O)CCNC(=S)Nc1ccc(-c2c3ccc(=O)cc-3oc3cc(O)ccc23)c(C(=O)O)c1", "note": "(stereo not shown) [Compound 12]", "values": [{"measurement": "cytotoxic effect / cell lysis", "setting": "[3]", "value": "no cytotoxic effect and did not cause cell lysis"}, {"measurement": "delivery to HeLa S3 cells (in words)", "setting": "[1]", "value": "excellent delivery"}, {"measurement": "Percentage of Cellular Uptake", "setting": "[1]; 250 nM", "value": 9.07, "unit": "%"}, {"measurement": "Percentage of Cellular Uptake", "setting": "[1]; 500 nM", "value": 8.71, "unit": "%"}, {"measurement": "Percentage of Cellular Uptake", "setting": "[1]; 1 μM", "value": 9.17, "unit": "%"}, {"measurement": "Percentage of Cellular Uptake", "setting": "[1]; 5 μM", "value": 63.52, "unit": "%"}, {"measurement": "Percentage of Cellular Uptake", "setting": "[1]; 10 μM", "value": 91.74, "unit": "%"}, {"measurement": "Percentage of Cellular Uptake", "setting": "[1]; 25 μM", "value": 98.61, "unit": "%"}, {"measurement": "Percentage of Cellular Uptake", "setting": "[1]; 50 μM", "value": 99.75, "unit": "%"}, {"measurement": "saturation of uptake reached with increasing concentration", "setting": "[1]", "value": "approximately 100%"}]}
{"smiles": "N=C(N)NCCNC(=O)CCCCCNC(=O)CCNC(=S)Nc1ccc(-c2c3ccc(=O)cc-3oc3cc(O)ccc23)c(C(=O)O)c1", "note": "[Compound 41, 5-(3-{2-[5-(2-Guanidinoethylcarbamoyl)-pentylcarbamoyl]-ethyl}-thioureido)-2-(6-hydroxy-3-oxo-3H-xanthen-9-yl)-benzoic acid]", "values": [{"measurement": "saturation of uptake reached with increasing concentration", "setting": "[1]", "value": "approximately 100%"}]}
{"smiles": "Cl.Cl.Cl.N=C(N)NCCNC(=O)CCOCC(COCCC(=O)NCCNC(=N)N)(COCCC(=O)NCCNC(=N)N)NC(=O)CCNC(=S)Nc1ccc(-c2c3ccc(=O)cc-3oc3cc(O)ccc23)c(C(=O)O)c1", "note": "(stereo not shown) [Compound 10]", "values": [{"measurement": "saturation of uptake reached with increasing concentration", "setting": "[1]", "value": "approximately 100%"}]}
